This is an account of results in patent publication US20180162862A1 (President and Fellows of Harvard College, priority 2015, published 2018).

In one assay the test system is S. aureus ATCC 29213. Put plainly: MIC test according to CLSI M7-A9, S. aureus ATCC 29213. Format: cell-based. Particulars: Staphylococcus aureus, read-out: S. aureus ATCC 29213 MIC at 24 h. On the procedure: (§1) MIC Test (S. aureus ATCC 29213, S. aureus ATCC 43300 and S. aureus Newman)
(§2) Susceptibility testing of S. aureus ATCC 29213, ATCC 43300 and Newman was performed according to Clinical Laboratory Standard Institute (CLSI) guidelines M7-A9. Test articles were stored at room temperature prior to use, then dissolved in filtered sterile DMSO. Stock DMSO solutions were diluted further in cation-adjusted Mueller Hinton broth (CAMHB) to provide appropriate test concentrations. Cultures of S. aureus (ATCC 29213, ATCC 43300 or Newman) were added in accordance with CLSI guidelines and plates incubated at 37° C. in air for 24 h. Endpoints were determined visually (and by spectrophotometer at 600 nm) and the minimum inhibitory concentration (MIC) defined as the lowest concentration of test articles resulting in complete inhibition of visible bacterial growth. Results are detailed in Table 2 (S. aureus ATCC 29213 and ATCC 43300) and Table 3 (S. aureus ATCC 29213, ATCC 43300 and Newman).

In a further assay the test system is S. aureus ATCC 43300. Put plainly: MIC test according to CLSI M7-A9, S. aureus ATCC 43300. Particulars: Staphylococcus aureus, read-out: S. aureus ATCC 43300 MIC at 24 h. Type of assay: cell-based. The protocol: as §1, §2
The mark [1] stands for this setting: ATCC29213, CLSI M7-A9, CAMHB, 24 h (Table 2).
Setting [2] is: ATCC43300, CLSI M7-A9, CAMHB, 24 h (Table 2).

The structures appear in SMILES notation. Values after ≈ are worked out from the molar mass of the structure shown. Like-named read-outs stand apart in the source and are kept apart here.

In general, MIC refers to the lowest concentration found to suppress growth. As for `CC(C)(C)c1ccc(-c2nc(NCCCn3ccncc3=O)n3[nH]c(=O)cc3n2)cc1` [Example 51, 1-(3-{[2-(4-tert-butylphenyl)-7-oxo-6H,7H-pyrazolo[1,5-a][1,3,5]triazin-4-yl]amino}propyl)-1,2-dihydropyrazin-2-one], the MIC with S. aureus ATCC 29213 (setting [1]) and in the assay with S. aureus ATCC 43300 (setting [2]) was more than 64 µg/mL each time.
With `CN1CCN(c2nc(-c3ccc(C(C)(C)C)cc3)nc3cc(=O)[nH]n23)CC1` [Example 18, 2-(4-tert-butylphenyl)-4-(4-methylpiperazin-1-yl)-6H,7H-pyrazolo[1,5-a][1,3,5]triazin-7-one], the minimum inhibitory concentration (MIC) in the assay on S. aureus ATCC 29213 (setting [1]) and in the assay with S. aureus ATCC 43300 (setting [2]) was 64 µg/mL (≈ 175 µM) throughout.
`CC(C)(C)c1ccc(-c2nc(NCCCN3CCC(O)CC3)n3[nH]c(=O)cc3n2)cc1` [Example 40, 2-(4-tert-butylphenyl)-4-{[3-(4-hydroxypiperidin-1-yl)propyl]amino}-6H,7H-pyrazolo[1,5-a][1,3,5]triazin-7-one]: the minimal inhibitory concentration (MIC) with S. aureus ATCC 29213 (setting [1]) and in the assay on S. aureus ATCC 43300 (setting [2]) was 128 µg/mL (≈ 301 µM) throughout.
In the case of `CC(C)(C)c1ccc(-c2nc(NC3CCC(NCc4ccccc4)CC3)n3[nH]c(=O)cc3n2)cc1` (stereo not drawn) [Example 56, 4-{[4-(benzylamino)cyclohexyl]amino}-2-(4-tert-butylphenyl)-6H,7H-pyrazolo[1,5-a][1,3,5]triazin-7-one], the MIC with S. aureus ATCC 29213 (setting [1]) came out at 16 µg/mL (≈ 34 µM); in the assay with S. aureus ATCC 43300 (setting [2]), 8 µg/mL (≈ 17 µM).
In the case of `CC(C)(C)c1ccc(-c2nc(NCCCc3ccccc3)n3[nH]c(=O)cc3n2)cc1` [Example 23, 2-(4-tert-butylphenyl)-4-[(3-phenylpropyl)amino]-6H,7H-pyrazolo[1,5-a][1,3,5]triazin-7-one], the minimal inhibitory concentration (MIC) with S. aureus ATCC 29213 (setting [1]) and with S. aureus ATCC 43300 (setting [2]) was 4 µg/mL (≈ 9.96 µM) each time.
For the molecule `CC(C)(O)CNc1nc(-c2ccc(C(C)(C)C)cc2)nc2cc(=O)[nH]n12` [Example 26, 2-(4-tert-butylphenyl)-4-[(2-hydroxy-2-methylpropyl)amino]-6H,7H-pyrazolo[1,5-a][1,3,5]triazin-7-one], the minimum inhibitory concentration (MIC) in the assay with S. aureus ATCC 29213 (setting [1]) and with S. aureus ATCC 43300 (setting [2]) was 32 µg/mL (≈ 90 µM) throughout.
In the case of `CC(C)(C)c1ccc(-c2nc(NCCCNC3CCCCC3)n3[nH]c(=O)cc3n2)cc1` [Example 39, 2-(4-tert-butylphenyl)-4-{[3-(cyclohexylamino)propyl]amino}-6H,7H-pyrazolo[1,5-a][1,3,5]triazin-7-one], the MIC with S. aureus ATCC 29213 (setting [1]) and with S. aureus ATCC 43300 (setting [2]) was 32 µg/mL (≈ 75.7 µM) in each case.
Consider `CC(C)(C)c1ccc(-c2nc(NCCCN3CCOCC3)n3[nH]c(=O)cc3n2)cc1` [Example 41, 2-(4-tert-butylphenyl)-4-{[3-(morpholin-4-yl)propyl]amino}-6H,7H-pyrazolo[1,5-a][1,3,5]triazin-7-one], for which the minimal inhibitory concentration (MIC) with S. aureus ATCC 29213 (setting [1]) and with S. aureus ATCC 43300 (setting [2]) was 128 µg/mL (≈ 312 µM) each time.
`CC(C)(C)c1ccc(-c2nc(NCCCOc3cnccn3)n3[nH]c(=O)cc3n2)cc1` [Example 50, 2-(4-tert-butylphenyl)-4-{[3-(pyrazin-2-yloxy)propyl]amino}-6H,7H-pyrazolo[1,5-a][1,3,5]triazin-7-one]: the MIC with S. aureus ATCC 29213 (setting [1]) and in the assay with S. aureus ATCC 43300 (setting [2]) was more than 32 µg/mL in each case.
On to `CC(C)(C)c1ccc(-c2nc(NCCCO)n3[nH]c(=O)cc3n2)cc1` [Example 22, 2-(4-tert-butylphenyl)-4-[(3-hydroxypropyl)amino]-6H,7H-pyrazolo[1,5-a][1,3,5]triazin-7-one], for which the MIC in the assay with S. aureus ATCC 29213 (setting [1]) amounted to 8 µg/mL (≈ 23.4 µM); in the assay on S. aureus ATCC 43300 (setting [2]) it was 32 µg/mL (≈ 93.7 µM).
Turning to `CC(C)(C)c1ccc(-c2nc(NCC(O)CNC3CCCCC3)n3[nH]c(=O)cc3n2)cc1` (stereo not drawn) [Example 61, 2-(4-tert-butylphenyl)-4-{[3-(cyclohexylamino)-2-hydroxypropyl]amino}-6H,7H-pyrazolo[1,5-a][1,3,5]triazin-7-one], the MIC in the assay on S. aureus ATCC 29213 (setting [1]) and with S. aureus ATCC 43300 (setting [2]) was 32 µg/mL (≈ 73 µM) each time.
For the molecule `CC(C)(C)c1ccc(-c2nc(NC3CCN(Cc4ccccc4)CC3)n3[nH]c(=O)cc3n2)cc1` [Example 35, 4-[(1-benzylpiperidin-4-yl)amino]-2-(4-tert-butylphenyl)-6H,7H-pyrazolo[1,5-a][1,3,5]triazin-7-one], the minimum inhibitory concentration (MIC) in the assay on S. aureus ATCC 29213 (setting [1]) and in the assay on S. aureus ATCC 43300 (setting [2]) was 8 µg/mL (≈ 17.5 µM) throughout.
Turning to `Cc1ccc(S(=O)(=O)CCCNc2nc(-c3ccc(C(C)(C)C)cc3)nc3cc(=O)[nH]n23)cc1C` [Example 58, 2-(4-tert-butylphenyl)-4-{[3-(3,4-dimethylbenzenesulfonyl)propyl]amino}-6H,7H-pyrazolo[1,5-a][1,3,5]triazin-7-one], the minimal inhibitory concentration (MIC) in the assay on S. aureus ATCC 29213 (setting [1]) and in the assay with S. aureus ATCC 43300 (setting [2]) was 64 µg/mL (≈ 130 µM) throughout.
On to `CN(C)c1nc(-c2ccc(C(C)(C)C)cc2)nc2cc(=O)[nH]n12` [Example 32, 2-(4-tert-butylphenyl)-4-(dimethylamino)-6H,7H-pyrazolo[1,5-a][1,3,5]triazin-7-one], for which the results for the minimum inhibitory concentration (MIC) with S. aureus ATCC 29213 (setting [1]) and with S. aureus ATCC 43300 (setting [2]) were more than 32 µg/mL and 32 µg/mL (≈ 103 µM), respectively.
For `Cc1cc(OCC(O)CNc2nc(-c3ccc(C(C)(C)C)cc3)nc3cc(=O)[nH]n23)ccc1Cl` (stereo not drawn) [Example 60, 2-(4-tert-butylphenyl)-4-{[3-(4-chloro-3-methylphenoxy)-2-hydroxypropyl]amino}-6H,7H-pyrazolo[1,5-a][1,3,5]triazin-7-one], in that order: 4 µg/mL (≈ 8.3 µM) and 8 µg/mL (≈ 16.6 µM).
For `CC(C)(C)c1ccc(-c2nc(NCCCNc3ccccc3)n3[nH]c(=O)cc3n2)cc1` [Example 43, 2-(4-tert-butylphenyl)-4-{[3-(phenylamino)propyl]amino}-6H,7H-pyrazolo[1,5-a][1,3,5]triazin-7-one], in that order: 8 µg/mL (≈ 19.2 µM) and 8 µg/mL (≈ 19.2 µM).
In the case of `Cc1ccc(-c2nc(NC3CCN(Cc4ccccc4)CC3)n3[nH]c(=O)cc3n2)cc1` [Example 69, 4-[(1-benzylpiperidin-4-yl)amino]-2-(4-methylphenyl)-6H,7H-pyrazolo[1,5-a][1,3,5]triazin-7-one], the figures for the MIC in the assay with S. aureus ATCC 29213 (setting [1]) and in the assay on S. aureus ATCC 43300 (setting [2]) were 32 µg/mL (≈ 77.2 µM) and more than 32 µg/mL, respectively.
For `CC(C)(C)c1ccc(-c2nc(NC3CCN(C(=O)c4nnc[nH]4)CC3)n3[nH]c(=O)cc3n2)cc1` [Example 64, 2-(4-tert-butylphenyl)-4-{[11-(4H-1,2,4-triazole-3-carbonyl)piperidin-4-yl]amino}-6H,7H-pyrazolo[1,5-a][1,3,5]triazin-7-one], in that order: 128 µg/mL (≈ 277 µM) and more than 128 µg/mL.
For `CC(C)(C)c1ccc(-c2nc(NC3CCN(C(=O)c4ccccc4)CC3)n3[nH]c(=O)cc3n2)cc1` [Example 63, 4-[(1-benzoylpiperidin-4-yl)amino]-2-(4-tert-butylphenyl)-6H,7H-pyrazolo[1,5-a][1,3,5]triazin-7-one], the MIC worked out at 32 µg/mL (≈ 68 µM) in the assay on S. aureus ATCC 29213 (setting [1]) and 128 µg/mL (≈ 272 µM) in the assay on S. aureus ATCC 43300 (setting [2]).
For `Cc1ccc(-c2nc(NCCCOc3ccc(Cl)c(C)c3)n3[nH]c(=O)cc3n2)cc1` [Example 67, 4-{[3-(4-chloro-3-methylphenoxy)propyl]amino}-2-(4-methylphenyl)-6H,7H-pyrazolo[1,5-a][1,3,5]triazin-7-one], in that order: more than 64 µg/mL and more than 64 µg/mL.
For `Cc1cc(OCCC(C)Nc2nc(-c3ccc(C(C)(C)C)cc3)nc3cc(=O)[nH]n23)ccc1Cl` (stereo not drawn) [Example 65, 2-(4-tert-butylphenyl)-4-{[4-(4-chloro-3-methylphenoxy)butan-2-yl]amino}-6H,7H-pyrazolo[1,5-a][1,3,5]triazin-7-one], in that order: 4 µg/mL (≈ 8.33 µM) and 4 µg/mL (≈ 8.33 µM).
For `CC(C)(C)c1ccc(-c2nc(NCCCn3ccnc3)n3[nH]c(=O)cc3n2)cc1` [Example 24, 2-(4-tert-butylphenyl)-4-{[3-(1H-imidazol-1-yl)propyl]amino}-6H,7H-pyrazolo[1,5-a][1,3,5]triazin-7-one], the minimum inhibitory concentration (MIC) with S. aureus ATCC 29213 (ATCC29213, 24 h) stood at 64 µg/mL (≈ 163 µM); with S. aureus ATCC 43300 (ATCC43300, 24 h), 64 µg/mL (≈ 163 µM).
With `Cc1cc(NC2CCN(c3nc(-c4ccc(C(C)(C)C)cc4)nc4cc(=O)[nH]n34)CC2)ccc1Cl` [Example 54, 2-(4-tert-butylphenyl)-4-{4-[(4-chloro-3-methylphenyl)amino]piperidin-1-yl}-6H,7H-pyrazolo[1,5-a][1,3,5]triazin-7-one], the MIC in the assay with S. aureus ATCC 29213 (setting [1]) and in the assay on S. aureus ATCC 43300 (setting [2]) was 4 µg/mL (≈ 8.15 µM) each time.
Regarding `Cc1cc(N2CCC(Nc3nc(-c4ccc(C(C)(C)C)cc4)nc4cc(=O)[nH]n34)CC2)ccc1Cl` [Example 62, 2-(4-tert-butylphenyl)-4-{[1-(4-chloro-3-methylphenyl)piperidin-4-yl]amino}-6H,7H-pyrazolo[1,5-a][1,3,5]triazin-7-one], the MIC in the assay on S. aureus ATCC 29213 (setting [1]) came out at 4 µg/mL (≈ 8.15 µM); in the assay on S. aureus ATCC 43300 (setting [2]) it was 16 µg/mL (≈ 32.6 µM).
With `CC(C)(C)c1ccc(-c2nc(NCCCOc3ccccc3)n3[nH]c(=O)cc3n2)cc1` [Example 33, 2-(4-tert-butylphenyl)-4-[(3-phenoxypropyl)amino]-6H,7H-pyrazolo[1,5-a][1,3,5]triazin-7-one], the MIC with S. aureus ATCC 29213 (setting [1]) and in the assay on S. aureus ATCC 43300 (setting [2]) was 8 µg/mL (≈ 19.2 µM) throughout.
Consider `CN(C)CCNc1nc(-c2ccc(C(C)(C)C)cc2)nc2cc(=O)[nH]n12` [Example 25, 2-(4-tert-butylphenyl)-4-{[2-(dimethylamino)ethyl]amino}-6H,7H-pyrazolo[1,5-a][1,3,5]triazin-7-one], for which the minimal inhibitory concentration (MIC) in the assay on S. aureus ATCC 29213 (setting [1]) amounted to 64 µg/mL (≈ 181 µM); in the assay on S. aureus ATCC 43300 (setting [2]), 32 µg/mL (≈ 90.3 µM).
For `CC(C)(C)c1ccc(-c2nc(NCCCNC3Cc4ccccc4C3)n3[nH]c(=O)cc3n2)cc1` [Example 42, 2-(4-tert-butylphenyl)-4-({3-[(2,3-dihydro-1H-inden-2-yl)amino]propyl}amino)-6H,7H-pyrazolo[1,5-a][1,3,5]triazin-7-one], in that order: 8 µg/mL (≈ 17.5 µM) and 8 µg/mL (≈ 17.5 µM).
